The values that follow come from patent US20210309686A1, “QUATERNARY AMMONIUM SALTS OF NICOTINIC ACID AND NICOTINAMIDE MONONUCLOETIDES AND RIBOSIDES AS ANTI-AGING AGENTS” (Jumpstart Fertility Pty Ltd, priority 2018, published 2021).

The assay deals with COV434 cells. The assay can be described thus: NAD Cell Assays (NAD cycling method). Format: cell-based. The settings on record: COV434 cells treated at 200 uM for 4 hr; NAD normalized to protein; salt compared mole per mole with its parent counterpart. The method, then:
NAD levels were assayed based on the NAD cycling method of Zhu and Rand, PLoS One (2012), herein incorporated by reference. COV434 cells were maintained in 6 well plates and treated with the indicated compounds at a concentration of 200 uM for 4 hr. Media was removed, plates were washed in cold PBS and cells were scraped down in NAD extraction buffer containing 10 mM nicotinamide, 50 mM Tris HCl, 0.1% Triton X-100. Cells were homogenized by sonication for 5 seconds, and samples were centrifuged at 7,000 g for 5 min at 4 degrees. Aliquots were taken for later protein assay, and samples were then passed through 10 kDa amicon filters at 14,000 g, 30 min at 4 degrees to remove proteins from the sample. Each sample was measured in technical triplicate, with 25 μL sample added to 100 μL ADH cycling mix (0.2 mg/ml alcohol dehydrogenase enzyme, 2% ethanol, 100 mM Tris pH 8.5). Samples were allowed to cycle for 10 min at room temperature, followed by 50 μL addition of an MTT/PMS solution (0.1 mM phenazine methosulfate, 0.8 mM 3-(4,5-Dimethylthiazol-2-yl)-2,5-diphenyltetrazolium bromide), 100 mM Tris-HCl pH 8.5). Plates were then incubated for 15 min and absorbance was measured at 570 nm. NAD concentrations were extrapolated from a standard curve, and normalized to protein concentrations determined by BCA protein assay.
The fold increase is obtained through a direct comparison on a mole per mole between the compared salt and its parent counterpart.

Each structure is given as a SMILES string.

For `O=C([O-])c1ccc[n+]([C@@H]2O[C@H](COP(=O)(O)O)[C@@H](O)[C@H]2O)c1` [I-002, (R)-3-Carboxy-2-hydroxy-N,N,N-trimethylpropan-1-aminium 1-((2R,3R,4S,5R)-5-(((hydrogenphosphonato)oxy)methyl)-3,4-dihydroxytetrahydrofuran-2-yl)pyridin-1-ium-3-carboxylate], the “Fold Increase of NAD Adjusted by Molecular Weight” value is listed as 1.47.

In the case of `O=C([O-])c1ccc[n+]([C@@H]2O[C@H](COP(=O)(O)O)[C@@H](O)[C@H]2O)c1` [I-003, 1-Carboxy-N,N,N-trimethylmethanaminium 1-((2R,3R,4S,5R)-5-(((hydrogenphosphonato)oxy)methyl)-3,4-dihydroxytetrahydrofuran-2-yl)pyridin-1-ium-3-carboxylate], the “Fold Increase of NAD Adjusted by Molecular Weight” value was 1.51. For `NC(=O)c1ccc[n+]([C@@H]2O[C@H](COP(=O)([O-])O)[C@@H](O)[C@H]2O)c1` [I-005, 1-Carboxy-N,N,N-trimethylmethanaminium ((2R,3S,4R,5R)-5-(3-carbamoylpyridin-1-ium-1-yl)-3,4-dihydroxytetrahydrofuran-2-yl)methyl phosphate] the value was 1.35; for `O=C([O-])c1ccc[n+]([C@@H]2O[C@H](COP(=O)(O)O)[C@@H](O)[C@H]2O)c1` [I-006, (R)-3-Carboxy-2-hydroxy-N,N,N-trimethylpropan-1-aminium 1-((2R,3R,4S,5R)-3,4-dihydroxy-5-((phosphonatooxy)methyl)tetrahydrofuran-2-yl)pyridin-1-ium-3-carboxylate], 1.64. To `O=C([O-])c1ccc[n+]([C@@H]2O[C@H](COP(=O)(O)O)[C@@H](O)[C@H]2O)c1` [I-007, 1-Carboxy-N,N,N-trimethylmethanaminium 1-((2R,3R,4S,5R)-3,4-dihydroxy-5-((phosphonatooxy)methyl)tetrahydrofuran-2-yl)pyridin-1-ium-3-carboxylate] belongs 1.92.
